The values that follow come from paper PMC4122973 (Bioscience Reports, 2014).

Assay [1] relates to HEK-293 cells transfected with empty pcDNA3.1neo vector. Put plainly: Fluo-3 intracellular Ca2+ assay, control HEK-293 cells with empty pcDNA3.1neo vector. The assay is classed as cell-based, human. The following applies: HEK-293 empty pcDNA3.1neo vector; 40 nM WS 12 (Figure S1a). As for the experimental part: Following a brief wash with PBS, cells were detached from each T75 flask by soaking with 2 ml Hepes-buffered saline EDTA (10 mM Hepes pH7.4, 155 mM NaCl, 1.7 mM EDTA) for several minutes and were harvested by addition of 10 ml PBS with gentle agitation and transfer to a 25 ml universal. A sample was taken to calculate cell yield using a hemocytometer and the cells were pelleted by centrifugation at 1500 rpm for 4 min. The pellet was resuspended in isotonic buffer (145 mM NaCl, 5 mM KCl, 1 mM MgCl2, 1 mM CaCl2, 10 mM Hepes pH7.4, 10 mM glucose, a variable content of probenecid (0, 0.13, 0.26, 0.52, 1.0, 2.0 or 2.5 mM) or 0.18 mM sulfinpyrazone, with optional 10 mg/ml BSA (all from Sigma-Aldrich) at a density of 5×10^6/ml and mixed with 2.5 or 5.0 μl Fluo-3AM (Invitrogen) from a 2.5 μg/μl stock solution prepared in (DMSO, Sigma-Aldrich). Cells were incubated in a 25 ml universal in the dark at room temperature with gentle rotary mixing (50 rpm) for 30–45 min and then washed by addition of 18 ml PBS followed by centrifugation and resuspension in isotonic buffer without BSA at 5×10^6 cells/ml. […] Real-time fluorescence intensity measurements were collected and data were exported to Microsoft Excel for analysis. […]

The target in a further assay is T1, TRPM8 SV 762,763 EL (Homo sapiens, UniProt Q7Z2W7, S762E/V763L).
T1 construct: expressed in transfected cells
T1 sequence (Q7Z2W7 whole entry S762E/V763L): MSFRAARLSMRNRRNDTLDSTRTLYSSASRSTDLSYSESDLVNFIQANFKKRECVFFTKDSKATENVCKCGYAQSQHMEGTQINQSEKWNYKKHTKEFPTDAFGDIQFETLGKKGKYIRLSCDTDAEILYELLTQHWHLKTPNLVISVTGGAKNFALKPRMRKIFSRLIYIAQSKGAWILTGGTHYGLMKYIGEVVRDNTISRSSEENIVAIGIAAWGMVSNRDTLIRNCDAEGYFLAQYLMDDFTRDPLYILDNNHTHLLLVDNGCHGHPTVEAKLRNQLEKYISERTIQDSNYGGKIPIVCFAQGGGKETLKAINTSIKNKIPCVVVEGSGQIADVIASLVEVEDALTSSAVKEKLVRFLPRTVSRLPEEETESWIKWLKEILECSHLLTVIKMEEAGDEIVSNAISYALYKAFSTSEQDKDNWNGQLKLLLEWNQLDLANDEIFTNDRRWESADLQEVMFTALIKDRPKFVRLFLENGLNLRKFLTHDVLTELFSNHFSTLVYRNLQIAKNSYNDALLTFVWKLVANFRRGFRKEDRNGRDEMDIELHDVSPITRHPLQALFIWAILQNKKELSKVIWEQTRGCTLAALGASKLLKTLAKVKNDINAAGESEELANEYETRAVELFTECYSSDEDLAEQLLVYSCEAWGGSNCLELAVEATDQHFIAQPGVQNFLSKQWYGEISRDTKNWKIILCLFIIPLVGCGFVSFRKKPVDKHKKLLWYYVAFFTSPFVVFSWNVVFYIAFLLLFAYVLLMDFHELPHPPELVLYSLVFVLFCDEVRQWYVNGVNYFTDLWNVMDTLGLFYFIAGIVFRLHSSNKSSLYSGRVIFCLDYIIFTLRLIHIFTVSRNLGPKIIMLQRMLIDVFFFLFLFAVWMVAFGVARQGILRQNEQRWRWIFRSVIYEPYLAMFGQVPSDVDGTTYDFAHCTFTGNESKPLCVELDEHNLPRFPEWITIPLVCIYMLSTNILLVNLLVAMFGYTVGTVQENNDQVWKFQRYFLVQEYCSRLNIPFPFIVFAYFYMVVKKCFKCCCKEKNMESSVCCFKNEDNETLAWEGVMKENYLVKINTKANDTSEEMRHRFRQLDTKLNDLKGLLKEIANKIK
Put plainly: Fluo-3 intracellular Ca2+ assay, HEK-293 cells expressing TRPM8 SV 762,763 EL mutant. It counts as cell-based. The following applies: HEK293 TRPM8 SV / EL; mean±S.E.M., n=3; read-out: EC50 for WS 12 (peak intracellular Ca2+ fluorescence). The text has this:
(§1) Human TRPM8 cDNA was cloned by RT–PCR from human prostate cancer cell line LNCaP (from the American Type Culture Collection) by ligation into pcDNA3.1neo and its DNA sequence validated (L.R. Sadofsky, unpublished work). Normal TRPM8 cDNA was mutated using synthetic oligonucleotides (from Eurofins, MWG, Operon) to amplify full-length plasmid DNA with Pfu DNA polymerase (Thermo Scientific). Amplified DNA was used to transform competent Esherichia coli (Agilent) and individual plasmid clones were screened by diagnostic restriction enzyme digestion-agarose gel electrophoresis. […]
(§2) Cell suspension for assay was added to 1.9 ml isotonic assay buffer (no BSA) in a 10×10×45 mm polystyrene cuvette (Sarstedt Ltd) containing a small magnetic flea for continuous stirring (~50 rpm), to bring the final volume to 2 ml, and placed within the photomultipler light box. […] Real-time fluorescence intensity measurements were collected and data were exported to Microsoft Excel for analysis. […]
(§3) Data from the measurement of Ca^2+ transients (each treatment including a 2 μM A23187 Ca^2+ ionophore control) were used to generate fluorescence intensity traces in Microsoft Excel. RFU (relative fluorescence unit) values for baseline and agonist-induced peak Ca^2+ fluo-3-fluorescence were determined by the manual analysis of graphs. […]

The next assay concerns the target T2, human TRPM8 (Homo sapiens, UniProt Q7Z2W7).
T2 construct: expressed in transfected cells
Description: Fluo-3 intracellular Ca2+ assay, HEK-293 cells expressing normal human TRPM8. It counts as cell-based. As for the experimental part: (§4) When cells reached approximately 80% confluence they were harvested for assays measuring Ca^2+ transients in response to TRP channel activation. […] A sample was taken to calculate cell yield using a hemocytometer and the cells were pelleted by centrifugation at 1500 rpm for 4 min.
(§5) Cell suspension for assay was added to 1.9 ml isotonic assay buffer (no BSA) in a 10×10×45 mm polystyrene cuvette (Sarstedt Ltd) containing a small magnetic flea for continuous stirring (~50 rpm), to bring the final volume to 2 ml, and placed within the photomultipler light box. […] Slit apertures were adjusted to enable maximum sensitivity while maintaining low noise. TRP channel agonist was administered by injection into the cuvette using a 1–20 μl pipette fitted with a narrow, extended-reach disposable tip. Antagonists were pre-added to cuvettes where appropriate. Real-time fluorescence intensity measurements were collected and data were exported to Microsoft Excel for analysis. Experimental treatments were performed in triplicate on three separate occasions to facilitate statistical analyses of reproducibility.
Data from the measurement of Ca^2+ transients (each treatment including a 2 μM A23187 Ca^2+ ionophore control) were used to generate fluorescence intensity traces in Microsoft Excel. RFU (relative fluorescence unit) values for baseline and agonist-induced peak Ca^2+ fluo-3-fluorescence were determined by the manual analysis of graphs. Agonist dose-dependent changes in peak RFU were expressed as ΔRFU relative to baseline and relative to maximum RFU elicited by A23187. […] This enabled estimation of excitatory concentration EC50 for agonists and inhibitory concentration IC50 values where pre-incubation with antagonist was employed. Comparisons between data generated in triplicate within individual experiments and between experiments performed on […] were analysed using Student's t test and one-way ANOVA with post-hoc analysis of group means using Tukey's multiple comparison test.

In assay [2] the target is T3, TRPM8 FK 1045,1046 AG (Homo sapiens, UniProt Q7Z2W7, F1045A/K1046G).
T3 construct: expressed in transfected cells
T3 sequence (Q7Z2W7 whole entry F1045A/K1046G): as the sequence (Q7Z2W7 whole entry S762E/V763L) above, with E762S, L763V, F1045A, K1046G counted along it
Description: Fluo-3 intracellular Ca2+ assay, SH-SY5Y cells expressing TRPM8 FK 1045,1046 AG mutant. It counts as cell-based.
Source text: as §1, §2, §3

Assay [3] addresses T3, TRPM8 FK 1045,1046 AG. Description: Fluo-3 intracellular Ca2+ assay, HEK-293 cells expressing TRPM8 FK 1045,1046 AG mutant. The assay is classed as cell-based. The following applies: HEK293 TRPM8 FK / AG; mean±S.E.M., n=3; read-out: EC50 for WS 12 (peak intracellular Ca2+ fluorescence).
Source text: as §1, §2, §3

For a further assay, the target named is T4, SH-SY5Y TRPA1 R797T (Homo sapiens, UniProt O75762, R797T).
T4 construct: expressed in transfected cells
T4 sequence (O75762 whole entry R797T): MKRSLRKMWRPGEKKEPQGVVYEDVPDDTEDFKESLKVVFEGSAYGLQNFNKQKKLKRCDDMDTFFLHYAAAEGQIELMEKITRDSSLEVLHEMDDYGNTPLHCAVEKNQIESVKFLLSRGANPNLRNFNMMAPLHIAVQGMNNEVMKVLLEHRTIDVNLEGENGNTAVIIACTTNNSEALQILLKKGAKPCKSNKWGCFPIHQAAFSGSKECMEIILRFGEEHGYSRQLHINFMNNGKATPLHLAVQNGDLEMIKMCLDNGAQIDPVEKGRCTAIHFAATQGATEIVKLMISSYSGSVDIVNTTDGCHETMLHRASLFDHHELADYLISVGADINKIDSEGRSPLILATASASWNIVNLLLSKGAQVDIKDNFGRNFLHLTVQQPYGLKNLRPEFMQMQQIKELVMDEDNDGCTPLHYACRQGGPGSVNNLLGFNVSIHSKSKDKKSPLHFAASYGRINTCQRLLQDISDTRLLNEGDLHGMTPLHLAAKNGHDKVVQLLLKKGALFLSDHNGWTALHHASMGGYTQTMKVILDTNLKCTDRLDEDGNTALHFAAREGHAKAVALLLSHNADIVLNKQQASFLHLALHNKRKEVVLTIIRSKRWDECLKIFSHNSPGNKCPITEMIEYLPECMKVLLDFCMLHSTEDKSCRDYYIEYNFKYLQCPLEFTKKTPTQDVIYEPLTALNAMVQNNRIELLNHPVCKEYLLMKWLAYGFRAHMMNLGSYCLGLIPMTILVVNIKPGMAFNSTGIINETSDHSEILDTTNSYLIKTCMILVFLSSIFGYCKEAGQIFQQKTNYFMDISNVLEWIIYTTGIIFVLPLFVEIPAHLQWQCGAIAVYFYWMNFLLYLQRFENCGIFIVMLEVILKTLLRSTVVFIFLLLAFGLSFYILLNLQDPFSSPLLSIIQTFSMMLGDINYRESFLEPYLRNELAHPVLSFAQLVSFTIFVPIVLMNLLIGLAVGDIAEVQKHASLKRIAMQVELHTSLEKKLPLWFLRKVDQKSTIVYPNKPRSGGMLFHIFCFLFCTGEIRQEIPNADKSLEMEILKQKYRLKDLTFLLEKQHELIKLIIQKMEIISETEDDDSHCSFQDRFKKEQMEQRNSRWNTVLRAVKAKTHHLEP
Description: Fluo-3 intracellular Ca2+ assay, TRPA1-transfected SH-SY5Y cells that lost response to agonist. As to conditions: pre-treatment followed by AITC. It counts as cell-based. The protocol: as §4
as §5, with “Antagonists were pre-added to cuvettes where appropriate.” left out, “Experimental treatments were performed in triplicate on three separate occasions to facilitate statistical analyses of reproducibility.” left out
Data from the measurement of Ca^2+ transients (each treatment including a 2 μM A23187 Ca^2+ ionophore control) were used to generate fluorescence intensity traces in Microsoft Excel. RFU (relative fluorescence unit) values for baseline and agonist-induced peak Ca^2+ fluo-3-fluorescence were determined by the manual analysis of graphs. Agonist dose-dependent changes in peak RFU were expressed as ΔRFU relative to baseline and relative to maximum RFU elicited by A23187. […]

The next assay concerns the target T5, TRPA1 797R (Homo sapiens, UniProt O75762).
T5 construct: expressed in transfected cells
Put plainly: Fluo-3 intracellular Ca2+ assay, HEK-293 cells expressing TRPA1 797R (reference sequence). It counts as cell-based.

The target in another assay is T6, TRPA1-(His)10 (Homo sapiens, UniProt O75762).
T6 construct: expressed in transfected cells
T6 sequence (O75762 with tags, fused parts or gaps limits assumed): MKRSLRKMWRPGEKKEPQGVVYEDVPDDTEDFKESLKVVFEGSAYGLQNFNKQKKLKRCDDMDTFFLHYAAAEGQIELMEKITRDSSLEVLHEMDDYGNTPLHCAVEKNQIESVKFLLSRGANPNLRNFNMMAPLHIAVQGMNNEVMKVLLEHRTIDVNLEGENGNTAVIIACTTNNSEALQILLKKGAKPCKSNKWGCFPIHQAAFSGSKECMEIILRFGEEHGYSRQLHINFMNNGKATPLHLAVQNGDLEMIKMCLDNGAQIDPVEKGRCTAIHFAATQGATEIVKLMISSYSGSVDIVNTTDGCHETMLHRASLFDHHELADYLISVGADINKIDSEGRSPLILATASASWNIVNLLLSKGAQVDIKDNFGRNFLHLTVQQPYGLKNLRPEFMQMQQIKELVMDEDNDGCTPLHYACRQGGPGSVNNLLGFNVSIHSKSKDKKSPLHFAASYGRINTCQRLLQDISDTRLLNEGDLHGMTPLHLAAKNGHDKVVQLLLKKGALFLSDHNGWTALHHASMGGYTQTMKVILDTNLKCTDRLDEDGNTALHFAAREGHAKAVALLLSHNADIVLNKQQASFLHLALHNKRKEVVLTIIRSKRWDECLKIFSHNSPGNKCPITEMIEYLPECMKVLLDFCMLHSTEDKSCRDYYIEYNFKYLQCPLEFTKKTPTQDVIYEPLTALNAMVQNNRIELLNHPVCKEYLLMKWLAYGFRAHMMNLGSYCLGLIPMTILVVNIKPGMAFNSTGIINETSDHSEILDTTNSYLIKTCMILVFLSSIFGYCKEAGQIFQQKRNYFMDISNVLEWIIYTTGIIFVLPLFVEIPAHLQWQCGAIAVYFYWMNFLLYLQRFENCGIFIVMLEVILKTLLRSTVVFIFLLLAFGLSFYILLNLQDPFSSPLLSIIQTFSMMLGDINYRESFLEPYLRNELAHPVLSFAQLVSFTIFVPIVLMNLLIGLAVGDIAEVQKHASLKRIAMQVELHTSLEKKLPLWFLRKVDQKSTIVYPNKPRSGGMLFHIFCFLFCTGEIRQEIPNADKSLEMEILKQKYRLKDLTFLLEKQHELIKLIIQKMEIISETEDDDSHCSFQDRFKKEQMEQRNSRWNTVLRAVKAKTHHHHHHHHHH
Description: Fluo-3 intracellular Ca2+ assay, HEK-293 cells expressing TRPA1-(His)10. The following applies: HEK-293 TRPA1-(His)10; mean ±standard deviation, n=4; read-out: EC50 cinnamaldehyde. It counts as cell-based. The text has this:
(§6) Human TRPA1 cDNA in pcDNA3.1neo [41] was mutated to create SNP variants using quick change PCR with appropriate primer pairs: R797T forward 5′ […] TT and reverse 5′ […], S804N forward 5′ […] ATGTTC and reverse 5′ […]. Likewise, the experimental mutant S873E, in ICL-2 (intracellular loop-2), was created using PCR primers: forward 5′ […] […] and reverse 5′ […]. For C-terminal extension, TRPA1cDNA was modified by excision of the 3′ section of the coding region (BamHI–XbaI digestion) and replacement with a BamHI–XbaI digested PCR amplified section containing codons for ten histidine residues (His)10 prior to the translation stop codon using T4 DNA ligase (Promega). PCR primers were: sense 5′ TTTAC […] CATT 3′ and antisense 5′ […] […] TGCCTT 3′. […]
(§7) Aliquots of cell suspension (usually 100 μl) were used for measurement of intracellular Ca^2+ transients using a PTI (Photon Technology International) 814 photomultiplier detection system interfaced with a desktop computer (PTI Inc.). […] The cuvette was illuminated using light at a wavelength of 506 nm (slit width 8 nm) and monitored using fluorescence detection at 526 nm (slit width 8 nm) coupled to FeliX GX software (PTI Inc). […] Real-time fluorescence intensity measurements were collected and data were exported to Microsoft Excel for analysis. […]

The target of the next assay is T7, TRPA1 797T (Homo sapiens, UniProt O75762, R797T).
T7 construct: expressed in transfected cells
T7 sequence (O75762 whole entry R797T): as the sequence (O75762 whole entry R797T) above
Description: Fluo-3 intracellular Ca2+ assay, HEK-293 cells expressing TRPA1 797T SNP variant. The following applies: HEK-293 TRPA1 797T; mean ±standard deviation, n=4; read-out: EC50 cinnamaldehyde. It counts as cell-based.
Source text: as §6, §7

The target in the next assay is T8, TRPA1 804N (Homo sapiens, UniProt O75762, S804N).
T8 construct: expressed in transfected cells
T8 sequence (O75762 whole entry S804N): as the sequence (O75762 whole entry R797T) above, with T797R, S804N counted along it
Description: Fluo-3 intracellular Ca2+ assay, HEK-293 cells expressing TRPA1 804N SNP variant. The assay is classed as cell-based. As to conditions: HEK-293 TRPA1 804N; mean ±standard deviation, n=4; read-out: EC50 cinnamaldehyde.
Source text: as §6, §7

Entries after “also recorded” stand apart in the source; their conditions may differ.

T5 sequence (O75762 whole entry): as the sequence (O75762 whole entry R797T) above, with T797R counted along it
T2 sequence (Q7Z2W7 whole entry): as the sequence (Q7Z2W7 whole entry S762E/V763L) above, with E762S, L763V counted along it
Description for TRPA1 797R: When cells reached approximately 80% confluence they were harvested for assays measuring Ca^2+ transients in response to TRP channel activation. Following a brief wash with PBS, cells were detached from each T75 flask by soaking with 2 ml Hepes-buffered saline EDTA (10 mM Hepes pH7.4, 155 mM NaCl, 1.7 mM EDTA) for several minutes and were harvested by addition of 10 ml PBS with gentle agitation and transfer to a 25 ml universal. A sample was taken to calculate cell yield using a hemocytometer and the cells were pelleted by centrifugation at 1500 rpm for 4 min. […]

As for `CC1CCC(C(C)C)C(O)C1` (stereo not drawn) [menthol], in assay [1], the “Intracellular Ca2+ transients in empty-vector control cells” value is given as “did not exhibit intracellular Ca^2+ transients”.

On to `COc1ccc(NC(=O)[C@@H]2CC(C)CC[C@H]2C(C)C)cc1` (stereo partly drawn) [WS 12, (1R,2S)-N-(4-methoxyphenyl)-5-methyl-2-(1-methylethyl)cyclohexanecarbo-xamide], for which the EC50 was found to be 178 ± 22 nM on TRPM8 SV 762,763 EL; 128 ± 22 nM at human TRPM8 (HEK293 TRPM8, mean±S.E.M., n=3, read-out: EC50 for WS 12 (peak intracellular Ca2+ fluorescence)); 187 ± 37 nM on TRPM8 FK 1045,1046 AG [2] (mean±S.E.M., n=3, read-out: EC50 for WS 12 (peak intracellular Ca2+ fluorescence)); 194 ± 50 nM on TRPM8 FK 1045,1046 AG [3]. Besides, the “Intracellular Ca2+ transients in empty-vector control cells” value in assay [1] is given as “did not exhibit intracellular Ca^2+ transients”.

Consider `Nc1ncnc2c1cnn2-c1ccccc1` [PP3, 4-amino-7-phenylpyrazol[3,4-d]pyrimidine], for which the “Recovery of responses to TRPA1 agonists after pre-treatment” value at SH-SY5Y TRPA1 R797T is listed as “did not facilitate recovery”. The “Effect of pre-treatment on responses to TRPM8 agonist” value on TRPM8 FK 1045,1046 AG [2] (150 nM WS 12) is “did not affect responses; also recorded: did not inhibit responses”.

For `CCCN(CCC)S(=O)(=O)c1ccc(C(=O)O)cc1` [probenecid], the “Effect of probenecid on TRPA1-induced intracellular Ca2+ response” value at TRPA1 797R (probenecid above 1 mM, up to 2.5 mM, 60 μM cinnamaldehyde) was “suppressed; also recorded: inhibited”. On human TRPM8 (0.13 mM probenecid, relative to data derived using sulfinpyrazone, TRPM8 and TRPA1 assays), the “Effect of low probenecid concentration on Ca2+ assay results” value is “did not affect”. In addition, at human TRPM8 (probenecid above 1 mM, up to 2.5 mM, 40 nM WS 12), the “Effect of probenecid on TRPM8-induced intracellular Ca2+ response” value is recorded as “inhibited; also recorded: suppressed the response to WS 12”.

In the case of `O=C/C=C/c1ccccc1` [cinnamaldehyde], the EC50 at TRPA1 797R worked out at 15000 ± 5000 nM; on TRPA1-(His)10, 8000 ± 2000 nM; at TRPA1 797T it was 3000 ± 1000 nM; on TRPA1 804N, 11000 ± 3000 nM.

Usually EC50 stands for the concentration at which the effect is half-maximal.
